According to patent publication US20250115595A1, “INHIBITORS OF HYPOXIA-INDUCIBLE FACTORS” (The Johns Hopkins University, priority 2021, published 2025):

What was measured:
HIF-1α and HIF-2α = assay: HIF accumulation in hypoxic HUVECs; assay type: cell-based, human; conditions: 10 μM, 4 hours
From the text: Vascular endothelial cells also secrete angiogenic mediators that contribute to the progression of diabetic eye disease (Y. Qin et al., Sci Adv 8, eabm1896 (2022)). Exposure of human umbilical vein endothelial cells (HUVECs) to hypoxia induced HIF-1α and HIF-2α protein accumulation, which was inhibited by 32-134D (FIG. 30). […] Of note, ANGPT2 and VE-PTP, two emerging targets for the treatment of diabetic eye disease, are both expressed specifically by vascular cells (G. Fachinger, et al., Oncogene 18, 5948-5953 (1999); P. C. Maisonpierre et al., Science 277, 55-60 (1997)).
Cells culture and reagents: MIO-M1 cells were a gift from Dr. Astrid Limb (University College London, Institute of Ophthalmology, London, United Kingdom). MIO-M1 and HUVEC cells were cultured in DMEM with 10% (vol/vol) FBS (Quality Biological) and 1% penicillin/streptomycin (Cellgro). Hypoxia chambers were used to expose cells. Evans Blue (E2129) was purchased from Sigma-Aldrich.
Immunoblot assays and ELISAs: Cell, neurosensory retina, and D120 retinal organoid lysates were subjected to 4-15% gradient SDS/PAGE (Invitrogen). Immunoblot assays were performed as previously described (X. Xin et al., 2013, Proc Natl Acad Sci USA 110, E3425-3434).

C57BL/6 mice [1] = assay: Laser CNV model, intraperitoneal dosing; assay type: in vivo, mouse
Experimental: The laser CNV model for neovascular (wet) age-related macular degeneration was used to assess the efficacy of 32-134D in blocking HIF-regulated gene expression in the eye (FIG. 20A). C57BL/6 mice were treated with laser on day 0. Beginning on day 2, mice were treated with 5 daily intraperitoneal (IP) injections (day 2 to day 6) with 32-134D at 40 mg/kg or with vehicle control. On day 7, choroidal flat mounts were prepared and stained with isolectin-B4 to examine the CNV lesions. The expression of Vegf (FIG. 20B) and Angpt14 (FIG. 20C) mRNA was also measured at day 7 following laser treatment.
C57BL/6 mice were treated with laser on day 0. Beginning on day 2, mice were treated with 5 daily IP injections (day 2 to day 6) with 32-134D at 40 mg/kg or with vehicle control. On day 7, mice were euthanized and choroidal flat mounts were stained with isolectin-B4 to examine the area of CNV lesions.

C57BL/6 mice [2] = assay: Ischemia/reperfusion (I/R) model of vascular permeability; assay type: in vivo, mouse; conditions: 5 daily IP injections 40 mg/kg
Experimental: The ability of 32-134D to inhibit vascular permeability in retinal vein occlusion patients was evaluated using the ischemia/reperfusion (I/R) model for vascular permeability in ischemic retinal disease. Transient ischemia was induced in the left eye in 8-to-10-week-old male C57BL/6 mice; the right eye was used as the non-I/R control. Following ischemia, mice were treated with 5 daily IP injections of vehicle control or 32-134D at 40 mg/kg. 24 hours after the fifth IP injection, mice were euthanized, Evans blue perfusion was performed, and retina flat mounts were examined for vascular leakage. […] There was no difference between non-/R (healthy) eyes and I/R eyes treated with 32-134D.
Vascular permeability by Evans blue tracer method: Mice were anesthetized with a mixture of ketamine (50 mg/kg) and xylazine (5 mg/kg) and subjected to Evans blue (Sigma) (50 mg/kg) perfusion by penile vein injection. […] Images were captured by Zeiss fluorescent microscope or confocal microscopy and fluorescence quantified by image J software (NIH). […] Blinded quantification of the number of leaking vessels was performed by manual counting major leakage from capillaries from retinas of each group. Non-capillary artifactual Evans blue or FITC-dextran leakage due to flat mount processing as well as minor leakages were not included in the quantitation. […] For quantification, high magnifications (20×) images were taken. […]

[3] = tested on: tumor immune microenvironment; assay: Flow cytometry of immune cell populations in Hepa1-6 tumors; assay type: in vivo, mouse; conditions: 200-mm3 tumors, within 8 days
Experimental: To analyze the mechanism by which 32-134D increased the response to anti-Pd1 therapy, tumor-bearing mice were treated with 32-134D or vehicle, and immune cell populations in well-established 200-mm^3 tumors were analyzed by flow cytometry.
Hepa1-6 tumors were digested with collagenase (1 mg/ml) at 37° C. for 30 minutes and the resulting single cell suspension was passed through a 70-μm cell strainer and washed twice with cold PBS. Cells were resuspended in FC buffer for subsequent flow cytometry analysis. […]

## Brc1ccc2c(-c3csc(-c4c[nH]c5c(Br)cccc45)n3)c[nH]c2c1 [Compound 32-134D, 4-(6-bromo-1H-indol-3-yl)-2-(7-bromo-1H-indol-3-yl)thiazole]
HIF-1α and HIF-2α
  hypoxia-induced HIF-1α and HIF-2α protein accumulation: inhibited
C57BL/6 mice [1]; 40 mg/kg IP, day 7 after laser
  Vegf mRNA in eyes: significantly decreased
C57BL/6 mice [1]; 5 daily IP injections 40 mg/kg, day 7
  CNV lesions: marked decrease in CNV
C57BL/6 mice [1]; 20 or 40 mg/kg IP, day 7 after laser
  Angpt14 mRNA expression in eyes: significantly decreased
C57BL/6 mice [2]
  vascular leakage in I/R eyes (Evans blue): significant reduction in vascular leakage
[3]
  percentage of Cd8+Ifng+ activated CTLs and Nk1.1+Cd3−Cd314+ activated NK cells: significantly increased
  percentage of Cd11b+F4/80+ tumor-associated macrophages and Cd11b+Ly6g+Ly6c− myeloid-derived suppressor cells: decrease
